According to patent US20030125325A1, “Pyrazolyl benzyl thioethers” (priority 2001, published 2003):

Key:
[1] = logP determination by HPLC (EEC directive 79/831 Annex V. A8); type: physicochemical; details: gradient method, acetonitrile/0.1% aqueous phosphoric acid, preparation examples
Description: The logP values were determined in accordance with EEC directive 79/831 Annex V. A8 by HPLC (gradient method, acetonitrile/0.1% aqueous phosphoric acid) […]

Puccinia recondita = assay: Puccinia test (wheat)/protective; type: in vivo; details: protective, application rate 100 g/ha, evaluation 10 days after inoculation, 0% = control, 100% = no infection
Description: Puccinia test (wheat)/protective
To produce a suitable preparation of active compound, 1 part by weight of active compound is mixed with the stated amounts of solvent and emulsifier, and the concentrate is diluted with water to the desired concentration.
To test for protective activity, young plants are sprayed with the preparation of active compound at the stated application rate. After the spray coating has dried, the plants are sprayed with a conidia suspension of Puccinia recondita. The plants remain in an incubation cabin at 20° C. and 100% relative atmospheric humidity for 48 hours.
The plants are then placed in a greenhouse at a temperature of about 20° C. and a relative atmospheric humidity of 80% to promote the development of rust pustules.
Evaluation is carried out 10 days after the inoculation. 0% means an efficacy which corresponds to that of the control, whereas an efficacy of 100% means that no infection is observed.

| Structure (SMILES) | chromatographic logP [1] | efficacy (Puccinia recondita) [%] |
| --- | --- | --- |
| CON=C(C1=NOCCO1)c1ccccc1CSc1ccn(-c2ccc(Cl)cc2)n1 [Example 1, [2-({[1-(4-chlorophenyl)-1H-pyrazol-3-yl]sulphanyl}methyl)phenyl](5,6-dihydro-1,4,2-dioxazin-3-yl)methanone O-methyloxime] | 3.69 | ≥ 98 |
| CON=C(C(=O)OC)c1ccccc1CSc1ccn(-c2ccc(Br)cc2)n1 [Example 2, methyl [2-({[1-(4-bromophenyl)-1H-pyrazol-3-yl]sulphanyl}methyl)phenyl](methoxyimino)acetate] | 4.07 | – |
| CNC(=O)C(=NOC)c1ccccc1CSc1ccn(-c2ccc(Br)cc2)n1 [Example 3, N-methyl-[2-( {[1-(4-bromophenyl)-1H-pyrazol-3-yl]sulphanyl}methyl)phenyl]-(methoxyimino)acetamide] | 3.5 | – |
